This is an account of results in patent publication US8575103B2, “Peptides and methods for inhibiting G alpha protein signaling” (The Board of Trustees of the University of Illinois, priority 2009, dated 2013).

For test [1], the system named is calcium mobilization. The test is described as follows: calcium flux / calcium mobilization in platelets. In kind it is cell-based, human. The conditions noted are these: 250 μM peptide; induced by TRAP1 (10 μM), U46619 (0.5 μM) or ADP (10 μM). As for the experimental part:
(§1) To further investigate the mechanism(s) by which G13SR2pep (SEQ ID NO:5) inhibited α11bβ3 integrin activation, the effect of G13SR2pep on calcium flux, RhoA activation, Src activation and changes in cAMP levels was determined using conventional assays.
(A change in cytosolic calcium serves as a functional read-out for many receptors and channels.)

Test [2] deals with human platelets. The test is described as follows: human platelet aggregation in platelet rich plasma (PRP). The conditions noted are these: PRP. In kind it is cell-based.
For test [3], the system named is CD1 mice. The test is described as follows: bleeding time in mice after intravenous administration. In kind it is in vivo. The conditions noted are these: 100 μl of 3.7 mM intravenously via tail vein, tail cut five minutes after administration. The protocol:
Briefly, CD1 mice (25 grams) were anesthetized with sodium pentobarbital, and either 100 μl of vehicle or 100 μl of a vehicle solution containing 3.7 mM of each peptide or aspirin was administered intravenously via the tail vein. Five minutes following administration, the tail was cut 0.5 cm from the tip and immersed in PBS buffer (pH 7.4; 37EC). Cessation of bleeding was observed visually and the total bleeding time was recorded.

Test [4] relates to α11bβ3 integrin. The test is described as follows: platelet α11bβ3 integrin activation, FITC-PAC1 antibody binding by flow cytometry. Format: cell-based, human. Conditions: 150 μM peptide, 0.5 μM U46619, FITC-PAC1, compared to 500 μM Random Peptide. As for the experimental part:
The platelet count in human PRP was adjusted to 1×10^6 platelets/ml. The platelets were then labeled with FITC-conjugated PAC1 antibody against activated α11bβ3 integrin, and the samples were analyzed by flow cytometry in a Beckman Coulter CyAn II Flow Cytometer. Trace (a) depicts resting platelets labeled with FITC-PAC-1 antibody. Trace (b) depicts platelets stimulated with 0.5 μM U46619 and labeled with FITC-PAC1 antibody. Trace (c) depicts platelets incubated with 500 μM of the Random Peptide (SEQ ID NO:9), followed by 0.5 μM U46619 stimulation and FITC-PAC1 labeling. Trace (d) depicts platelets incubated with 150 μM of the G13SR2pep, followed by 0.5 μM U46619 stimulation and FITC-PAC1 labeling.
Subsequent experiments examined the effect of G13SR2pep, (SEQ ID NO:5) on human platelet α11bβ3 integrin activation as measured by FITC-PAC-1 antibody binding.
For orientation: In flow cytometry, cells or beads pass a laser one at a time.

The target of test [5] is T1, α11bβ3 integrin (Homo sapiens, UniProt P05106+P08514+Q9Y490).
T1 construct: detected two bands, one at 130 kD and the other at 115 kD in solubilized human platelets; endogenous in cells; host or cells: solubilized human platelets
As to the kind of experiment: peptide affinity column with solubilized human platelets, western blot for α11bβ3. In kind it is binding. The conditions noted are these: immunoblot, bands at 130 kD and 115 kD. The text has this: (§2) On this basis, subsequent experiments examined whether G13SR2pep peptide (SEQ ID NO:5) does indeed directly interact with α11bβ3 and/or one of its associated proteins in human platelets. In this respect, platelet α11bβ3 integrin is known to exist in a complex with two cytoplasmic proteins, i.e., talin and kindlin-3 (Tadokoro, et al. (2003) Science 302:103-6; Moser, et al. (2008) Nature Med. 14:325-30). To determine whether G13SR2pep, (SEQ ID NO:5) interacts with any of these proteins (or with the entire α11bβ3, talin, kindlin-3 complex), peptide affinity columns using G13SR2pep (SEQ ID NO:5) were employed. The affinity purified protein(s) from solubilized human platelets that specifically bound to the G13SR2pep peptide were eluted, and analyzed by western blot for α11bβ3 integrin, talin and kindlin-3. In similar experiments, the eluates from a peptide column using the G13SR2-Random Peptide (SEQ ID NO:9) were also analyzed. Immunoblot analysis with the α11bβ3 antibodies (Abcam) detected two bands, one at 130 kD and the other at 115 kD in solubilized human platelets as well as in the elution fraction obtained from the G13SR2pep (SEQ ID NO:5) affinity column. […] This was supported by similar experiments using talin antibodies and the kindlin 3 antibody (Abcam).

Test [6] concerns Src. As to the kind of experiment: Src activation in platelets. Conditions: 250 μM peptide; induced by TRAP1 (10 μM), U46619 (0.5 μM) or ADP (10 μM). In kind it is cell-based, human. As for the experimental part:
as §1

Test [7] relates to cAMP levels. As to the kind of experiment: cAMP levels in human platelet-rich plasma. Conditions: 250 μM peptide. In kind it is cell-based. As for the experimental part: as §1
(In general: Cyclic AMP is a second messenger, typically raised through Gs and lowered through Gi signalling.)

The target in test [8] is T2, talin (Homo sapiens, UniProt Q9Y490).
T2 construct: also purified whole talin (220 kD), the talin head domain (47 kD) and kindlin 3 (72 kD); endogenous in cells; host or cells: solubilized human platelets
The test is described as follows: peptide affinity column with solubilized human platelets, western blot for talin. In kind it is binding.
Text: as §2
Thus, the binding of G13SR2pep (SEQ ID NO:5) to the talin head domain serves as the basis for the ability of G13SR2pep to inhibit α11bβ3 integrin activation and platelet aggregation. As such, peptides or specific compounds fashioned to mimic or modify the switch region interaction with talin, α11bβ3 integrin or other α11bβ3 integrin-associated proteins would have profound effects on thrombosis and other integrin-linked disease processes.

Test [9] addresses T3, kindlin-3 (Homo sapiens, UniProt Q86UX7).
T3 construct: also purified whole talin (220 kD), the talin head domain (47 kD) and kindlin 3 (72 kD); endogenous in cells; host or cells: solubilized human platelets
The test is described as follows: peptide affinity column with solubilized human platelets, western blot for kindlin-3. The conditions noted are these: immunoblot, kindlin 3 (72 kD). Format: binding.
Text: as §2

In test [10] the test system is RhoA. As to the kind of experiment: RhoA activation in platelets. Format: cell-based, human. Conditions: 250 μM peptide; induced by TRAP1 (10 μM), U46619 (0.5 μM) or ADP (10 μM). As for the experimental part: as §1
The subject of test [11] is human platelets. Conditions: Huang, et al. (2007) J. Biol. Chem. 282:10210-10222; cited from earlier work.

“Also recorded” adds a separate entry of the source. Where no end group is shown, it is not given here. The star is where a group is joined. Myristoyl = CCCCCCCCCCCCCC(=O)*

T2 sequence (Q9Y490 1-433): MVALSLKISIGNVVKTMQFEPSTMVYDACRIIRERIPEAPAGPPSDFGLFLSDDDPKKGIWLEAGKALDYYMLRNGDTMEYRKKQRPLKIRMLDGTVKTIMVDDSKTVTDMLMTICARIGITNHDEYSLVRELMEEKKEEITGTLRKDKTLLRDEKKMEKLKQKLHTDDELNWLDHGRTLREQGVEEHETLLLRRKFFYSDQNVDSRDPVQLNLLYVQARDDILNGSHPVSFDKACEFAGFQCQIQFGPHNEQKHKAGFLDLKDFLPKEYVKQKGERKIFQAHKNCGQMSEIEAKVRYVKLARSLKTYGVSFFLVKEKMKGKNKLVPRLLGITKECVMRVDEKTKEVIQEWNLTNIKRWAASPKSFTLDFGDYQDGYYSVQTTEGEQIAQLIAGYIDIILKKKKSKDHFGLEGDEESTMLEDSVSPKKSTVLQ

In the case of “VGGQRSERKRWFECFDS [G13SR2pep, non-myristoylated G13 Switch Region 2 peptide]”, the calcium mobilization result in test [1] is “did not alter”. For the same substance, the “platelet aggregation induced by the divalent cation ionophore A23187” value in test [2] (150 μM peptide, 10 μM A23187) is on record as “capable of blocking”. In addition, the “inhibition of human platelet aggregation stimulated by U46619” value in test [2] (75-150 μM G13SR2pep (Random Peptide 500 μM), 0.5 μM U46619) was “dose-dependent inhibition”. For the same substance, in [2] (75-150 μM G13SR2pep (Random Peptide 500 μM), 10 μM ADP), the “inhibition of human platelet aggregation stimulated by ADP” value is “dose-dependent inhibition”. In addition, the “inhibition of human platelet aggregation stimulated by TRAP1” value in test [2] (75-150 μM G13SR2pep (Random Peptide 500 μM), 15 μM TRAP1) is given as “dose-dependent inhibition”. In test [2] (75-150 μM G13SR2pep (Random Peptide 500 μM), 50 μM TRAP4), the “inhibition of human platelet aggregation stimulated by TRAP4” value is recorded as “dose-dependent inhibition”. Besides, the bleeding time entry in test [3] is reported as “increased bleeding times; also recorded: substantially increases”. Moreover, the “inhibition of U46619-mediated activation of α11bβ3 integrin” value in test [4] is on record as “dramatically inhibited”. Further, in test [5], the “α11bβ3 in affinity column eluate (interaction with peptide)” value is on record as “directly interacts”. Also, the Src activation entry in test [6] was “did not alter”. For the same substance, in [7], the cAMP levels result is given as “did not alter”. The “talin in affinity column eluate” value in test [8] (solubilized human platelets, immunoblot, whole talin (220 kD), talin head domain (47 kD)) was “purified”. In addition, the “binding to talin head domain” value in test [8] (α11bβ3-talin-kindlin 3 complex dissociated, affinity column eluates) is given as “binding partner”. In addition, the “kindlin 3 in affinity column eluate” value in test [9] is on record as “purified”. For the same substance, the RhoA activation entry in [10] is given as “did not alter”.
For the substance “Myr-Leu-Leu-Ala-Arg-Arg-Pro-Thr-Lys-Gly-Ile-His-Glu-Tyr (Myristoyl-LLARRPTKGIHEY) [Myr-G13SR1pep, original permeable peptide representing SR1 of the Gα13 subunit (Huang, et al. 2007)]”, the “inhibition of PAR1-induced human platelet aggregation” value in test [11] is “selectively and dose-dependently inhibited”.
